For 21 molecules, Ki results are on record in US20210130346A1, “Bromodomain Inhibitors” (AbbVie Inc., priority 2017, published 2021).

For this test, the target named is BRD4 (BDI_K57-E168) (Homo sapiens, UniProt O60885). As to the kind of experiment: TR-FRET bromodomain binding assay, BRD4 first bromodomain (BDI). The settings on record: mean Ki; 12 nM His tagged BRD4 (BDI_K57-E168), 100 nM Alexa647 probe; Ki calculated from IC50, probe Kd and probe concentration. The procedure:
A time-resolved fluorescence resonance energy transfer (TR-FRET) assay was used to determine the affinities of compounds of the Examples listed in Table 1 for each bromodomain of BRD4. […] An Alexa647-labeled BET-inhibitor was used as the fluorescent probe in the assay.
Compound dilution series were prepared in DMSO via an approximately 3-fold serial dilution. Compound dilutions were added directly into white, low-volume assay plates (Perkin Elmer Proxiplate 384 Plus# 6008280) using a Labcyte Echo in conjunction with Labcyte Access and Thermo Multidrop CombinL robotics. Compounds were then suspended in eight microliters (μL) of assay buffer (20 mM Sodium Phosphate, pH 6.0, 50 mM NaCl, 1 mM Ethylenediaminetetraacetic acid disodium salt dihydrate, 0.01% Triton X-100, 1 mM DL-Dithiothreitol) containing His-tagged bromodomain, Europium-conjugated anti-His antibody (Invitrogen PV5596) and Alexa-647-conjugated probe.
After a one-hour equilibration at room temperature, TR-FRET ratios were determined using an Envision multilabel plate reader (Ex 340, Em 495/520).
TR-FRET data were normalized to the means of 24 no-compound controls (“high”) and 8 controls containing 1 μM un-labeled probe (“low”). Percent inhibition was plotted as a function of compound concentration and the data were fit with the 4 parameter logistic equation to obtain IC50s. Inhibition constants (Ki) were calculated from the IC50s, probe Kd and probe concentration.
Consider `CCNC(=O)c1cc2c([C@@H]3C[C@@]34C(=O)N(C)c3ccccc34)cn(C)c(=O)c2[nH]1` (racemic) [Example 1, rac-N-ethyl-6-methyl-4-[(1R,2S)-1′-methyl-2′-oxo-1′,2′-dihydrospiro[cyclopropane-1,3′-indol]-2-yl]-7-oxo-6,7-dihydro-1H-pyrrolo[2,3-c]pyridine-2-carboxamide], for which the Ki – broadly, a dissociation constant, usually derived from enzyme kinetics or from competition with a known ligand – was 6.08 µM. The figure for `CN1C(=O)[C@@]2(C[C@H]2c2cn(C)c(=O)c3[nH]c(C(=O)NC4CC4)cc23)c2ccccc21` (racemic) [Example 2, rac-N-cyclopropyl-6-methyl-4-[(1R,2S)-1′-methyl-2′-oxo-1′,2′-dihydrospiro[cyclopropane-1,3′-indol]-2-yl]-7-oxo-6,7-dihydro-1H-pyrrolo[2,3-c]pyridine-2-carboxamide] is 5.42 µM; for `CN1C(=O)[C@@]2(C[C@H]2c2cn(C)c(=O)c3[nH]c(C(=O)NC4CC(F)(F)C4)cc23)c2ccccc21` (racemic) [Example 5, rac-N-(3,3-difluorocyclobutyl)-6-methyl-4-[(1R,2S)-1′-methyl-2′-oxo-1′,2′-dihydrospiro[cyclopropane-1,3′-indol]-2-yl]-7-oxo-6,7-dihydro-1H-pyrrolo[2,3-c]pyridine-2-carboxamide] it is 5.45 µM; for `CN1C(=O)[C@@]2(C[C@H]2c2cn(C)c(=O)c3[nH]c(C(=O)Nc4ccccc4)cc23)c2ccccc21` (racemic) [Example 8, rac-6-methyl-4-[(1R,2S)-1′-methyl-2′-oxo-1′,2′-dihydrospiro[cyclopropane-1,3′-indol]-2-yl]-7-oxo-N-phenyl-6,7-dihydro-1H-pyrrolo[2,3-c]pyridine-2-carboxamide] it is greater than 13 µM.

With `COc1ccc(NC(=O)c2cc3c([C@@H]4C[C@@]45C(=O)N(C)c4ccccc45)cn(C)c(=O)c3[nH]2)cc1` (racemic) [Example 9, rac-N-(4-methoxyphenyl)-6-methyl-4-[(1R,2S)-1′-methyl-2′-oxo-1′,2′-dihydrospiro[cyclopropane-1,3′-indol]-2-yl]-7-oxo-6,7-dihydro-1H-pyrrolo[2,3-c]pyridine-2-carboxamide], the Ki was 4.68 µM. In the case of `CN1C(=O)[C@@]2(C[C@H]2c2cn(C)c(=O)c3[nH]c(C(=O)Nc4cccc(CO)c4)cc23)c2ccccc21` (racemic) [Example 10, rac-N-[3-(hydroxymethyl)phenyl]-6-methyl-4-[(1R,2S)-1′-methyl-2′-oxo-1′,2′-dihydrospiro[cyclopropane-1,3′-indol]-2-yl]-7-oxo-6,7-dihydro-1H-pyrrolo[2,3-c]pyridine-2-carboxamide], the Ki is 2.05 µM.

Turning to `CN1C(=O)[C@@]2(C[C@H]2c2cn(C)c(=O)c3[nH]c(C(=O)NC4CC4)cc23)c2ccc(F)cc21` (racemic) [Example 11, rac-N-cyclopropyl-4-[(1R,2S)-6′-fluoro-1′-methyl-2′-oxo-1′,2′-dihydrospiro[cyclopropane-1,3′-indol]-2-yl]-6-methyl-7-oxo-6,7-dihydro-1H-pyrrolo[2,3-c]pyridine-2-carboxamide], the Ki was 7.38 µM.

Regarding `CN1C(=O)[C@@]2(C[C@H]2c2cn(C)c(=O)c3[nH]c(C(=O)NC4CC4)cc23)c2ccc(Cl)cc21` (racemic) [Example 12, rac-4-[(1R,2S)-6′-chloro-1′-methyl-2′-oxo-1′,2′-dihydrospiro[cyclopropane-1,3′-indol]-2-yl]-N-cyclopropyl-6-methyl-7-oxo-6,7-dihydro-1H-pyrrolo[2,3-c]pyridine-2-carboxamide], the inhibitory constant (Ki) is 4.53 µM. For the molecule `Cc1ccc2c(c1)N(C)C(=O)[C@@]21C[C@H]1c1cn(C)c(=O)c2[nH]c(C(=O)NC3CC3)cc12` (racemic) [Example 13, rac-N-cyclopropyl-4-[(1R,2S)-1′,6′-dimethyl-2′-oxo-1′,2′-dihydrospiro[cyclopropane-1,3′-indol]-2-yl]-6-methyl-7-oxo-6,7-dihydro-1H-pyrrolo[2,3-c]pyridine-2-carboxamide], the Ki was 2.95 µM. As for `COc1ccc2c(c1)N(C)C(=O)[C@@]21C[C@H]1c1cn(C)c(=O)c2[nH]c(C(=O)NC3CC3)cc12` (racemic) [Example 14, rac-N-cyclopropyl-4-[(1R,2S)-6′-methoxy-1′-methyl-2′-oxo-1′,2′-dihydrospiro[cyclopropane-1,3′-indol]-2-yl]-6-methyl-7-oxo-6,7-dihydro-1H-pyrrolo[2,3-c]pyridine-2-carboxamide], the Ki was 4.8 µM. The figure for `CN1C(=O)[C@@]2(C[C@H]2c2cn(C)c(=O)c3[nH]c(C(=O)NC4CC4)cc23)c2ccc(OC(F)(F)F)cc21` (racemic) [Example 15, rac-N-cyclopropyl-6-methyl-4-[(1R,2S)-1′-methyl-2′-oxo-6′-(trifluoromethoxy)-1′,2′-dihydrospiro[cyclopropane-1,3′-indol]-2-yl]-7-oxo-6,7-dihydro-1H-pyrrolo[2,3-c]pyridine-2-carboxamide] is 3.63 µM.

On to `CN1C(=O)[C@@]2(C[C@H]2c2cn(C)c(=O)c3[nH]c(C(=O)NC4CC4)cc23)c2cc(F)ccc21` (racemic) [Example 16, rac-N-cyclopropyl-4-[(1R,2S)-5′-fluoro-1′-methyl-2′-oxo-1′,2′-dihydrospiro[cyclopropane-1,3′-indol]-2-yl]-6-methyl-7-oxo-6,7-dihydro-1H-pyrrolo[2,3-c]pyridine-2-carboxamide], for which the Ki was 9.95 µM. The same measure for `Cn1cc([C@@H]2C[C@@]23C(=O)Nc2ccccc23)c2cc(C(=O)NC3CC3)[nH]c2c1=O` (racemic) [Example 19, rac-N-cyclopropyl-6-methyl-7-oxo-4-[(1R,2S)-2′-oxo-1′,2′-dihydrospiro[cyclopropane-1,3′-indol]-2-yl]-6,7-dihydro-1H-pyrrolo[2,3-c]pyridine-2-carboxamide]: greater than 13 µM. `CCN1C(=O)[C@@]2(C[C@H]2c2cn(C)c(=O)c3[nH]c(C(=O)NC4CC4)cc23)c2ccccc21` (racemic) [Example 22, rac-N-cyclopropyl-4-[(1R,2S)-1′-ethyl-2′-oxo-1′,2′-dihydrospiro[cyclopropane-1,3′-indol]-2-yl]-6-methyl-7-oxo-6,7-dihydro-1H-pyrrolo[2,3-c]pyridine-2-carboxamide]: the inhibitory constant (Ki) is 4 µM.

As to `Cn1cc(C2CC23C(=O)N(CC(F)(F)F)c2ccccc23)c2cc(C(=O)NC3CC3)[nH]c2c1=O` (racemic) [Example 23, rac-N-cyclopropyl-6-methyl-7-oxo-4-[(1R,2S)-2′-oxo-′-(2,2,2-trifluoroethyl)-1′,2′-dihydrospiro[cyclopropane-1,3′-indol]-2-yl]-6,7-dihydro-1H-pyrrolo[2,3-c]pyridine-2-carboxamide], the Ki is greater than 13 µM. With `Cn1cc([C@@H]2C[C@@]23C(=O)N(C2CC2)c2ccccc23)c2cc(C(=O)NC3CC3)[nH]c2c1=O` (racemic) [Example 26, rac-N-cyclopropyl-4-[(1R,2S)-1′-cyclopropyl-2′-oxo-1′,2′-dihydrospiro[cyclopropane-1,3′-indol]-2-yl]-6-methyl-7-oxo-6,7-dihydro-1H-pyrrolo[2,3-c]pyridine-2-carboxamide], the inhibitory constant (Ki) is 9.22 µM.

Turning to `COCCN1C(=O)[C@@]2(C[C@H]2c2cn(C)c(=O)c3[nH]c(C(=O)NC4CC4)cc23)c2ccccc21` (racemic) [Example 27, rac-N-cyclopropyl-4-[(1R,2S)-1′-(2-methoxyethyl)-2′-oxo-1′,2′-dihydrospiro[cyclopropane-1,3′-indol]-2-yl]-6-methyl-7-oxo-6,7-dihydro-1H-pyrrolo[2,3-c]pyridine-2-carboxamide], the Ki was greater than 13 µM. The same measure for `Cn1cc([C@@H]2C[C@@]23C(=O)N(Cc2ccc(N)cc2)c2ccccc23)c2cc(C(=O)NC3CC3)[nH]c2c1=O` (racemic) [Example 28, rac-4-{(1R,2S)-1′-[(4-aminophenyl)methyl]-2′oxo-1′,2′-dihydrospiro[cyclopropane-1,3′-indol]-2-yl}-N-cyclopropyl-6-methyl-7-oxo-6,7-dihydro-1H-pyrrolo [2,3-c]pyridine-2-carboxamide]: 7.43 µM; for `CN1C(=O)[C@@]2(C[C@H]2c2cn(C)c(=O)c3[nH]c(C(=O)NC4CC4)cc23)c2cccc(Br)c21` (racemic) [Example 29, rac-4-[(1R,2S)-7′-bromo-1′-methyl-2′-oxo-1′,2′-dihydrospiro[cyclopropane-1,3′-indol]-2-yl]-N-cyclopropyl-6-methyl-7-oxo-6,7-dihydro-1H-pyrrolo[2,3-c]pyridine-2-carboxamide]: 4.84 µM. Consider `CN1C(=O)[C@@]2(C[C@H]2c2cn(C)c(=O)c3[nH]ccc23)c2ccccc21` (racemic) [Example 30, rac-(1R,2S)-1′-methyl-2-(6-methyl-7-oxo-6,7-dihydro-1H-pyrrolo[2,3-c]pyridin-4-yl)spiro[cyclopropane-1,3′-indol]-2′(1H)-one], for which the Ki was 3.44 µM.

Consider `CN1C(=O)[C@@]2(C[C@H]2c2cn(C)c(=O)c3[nH]c(C4CC4)cc23)c2ccccc21` (racemic) [Example 31, rac-(1R,2S)-2-(2-cyclopropyl-6-methyl-7-oxo-6,7-dihydro-1H-pyrrolo[2,3-c]pyridin-4-yl)-1′-methylspiro[cyclopropane-1,3′-indol]-2′(1H)-one], for which the Ki is 0.811 µM.
